Earlier results as cited in patent US10329321B2, “Site-selective functionalization of proteins using traceless affinity labels” (priority 2016, dated 2019).

How the values were obtained:
[1] = target: nucleotide binding pocket (NBP) in immunoglobulin Fab arms; conditions: binding affinity dependent on the antibody
[2] = imidazole ring of histidine or its fluorinated replacement

Kd [1] [µM] | pKa [2] | SMILES
1 to 8 | – | O=C(O)CCCc1c[nH]c2ccccc12 [indole-3-butryic acid, 4-(3-indolyl)butyric acid]
– | ~1.76 | Fc1c[nH]cn1 [4-fluoro-imidazole]
– | ~6 | N[C@@H](Cc1c[nH]cn1)C(=O)O [histidine]
– | ~1.22 | Fc1ncc[nH]1 [2-fluoro-imidazole]
